We go through four compounds from patent US20200339544A1 (JOINT STOCK COMPANY "BIOCAD", priority 2017, published 2020).

The target in data set [1] is T1, DM EGFR (DoubleMutantEGFR, L828R/T790M) (Homo sapiens, UniProt P00533, L858R/T790M).
T1 construct: purchased SignalChem
The data set can be described thus: Inhibition of DM EGFR kinase activity (ADP-Glo). Format: biochemical. Conditions: for IC50: inhibition of kinase activity, EGFR DM (L828R/T790M); for SI, IC50(WT)/IC50(DM): selectivity index, kinase EGFR WT vs EGFR DM. The gist of the method: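 Luminescent ADP-Glo readout was used for both wild-type and L858R/T790M EGFR, each run 180 minutes at 37° C. Reactions used a solution of 50 μM ATP with 0.5 mg/mL peptide substrate. Four-parameter logistic curves gave IC50.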
(In general: ADP-Glo turns the ADP formed in a reaction into a luminescent signal.)

A short description of data set [2]: Permeability through monolayer of Caco-2 cells. The class given is in vitro ADME. The conditions noted are these: human, Caco-2 monolayer; for Papp A→B at 2 h, 10 µM: pH 6.5 upper / pH 7.4 lower, 2 h at 37° C.; for efflux ratio at 2 h, 10 µM: Papp B-A/Papp A-B. The text has this:
2) Assessment of permeability through monolayer of Caco-2 cells.
Assessment of permeability through the monolayer of Caco-2 cells allows to evaluate the ability of the candidate compounds to penetrate through biological membranes by active and passive transport.
Caco-2, the cells of the intestinal epithelium, had been cultured in transwell plate inserts with the filters (with pores of 0.4 μm, BD Falcon with High Density) for 21 days, and then the integrity of the monolayer were estimated with Lucifer Yellow (Sigma-Aldrich, USA) by standard protocol. When setting the A→B transfer (“intestinal lumen”—“blood stream” transfer), solutions of test substances were added in a buffer with pH 6.5 (HBSS, 10 mM HEPES, 15 mM glucose solution) with the concentration of 10 μM into the upper chamber; the lower chamber was filled with a buffer with pH 7.4 (HBSS, 10 mM HEPES, 15 mM Glucose, 1% BSA). When setting B→A transfer (“blood stream”—“intestinal lumen” transfer), the upper chamber was filled with the buffer with pH 6.5, and solutions of the test substances were added in the buffer with pH 7.4 at the concentration of 10 μM in the lower chamber. Propranolol was used as a control substance (as it has high permeability).
After incubating for 2 h at 37° C. under 5% CO2, the amounts of test substances were determined in the upper and lower chambers by HPLC using Agilent1200 chromatograph (Agilent, USA) with preliminary protein precipitation with acetonitrile. We used gradient elution (1 mL/min flow rate). We determined the areas of peaks corresponding to the compounds. On the basis of peak areas in the calibration standards we determined the concentration of compound in the initial solution and in the samples from the wells of the upper and lower chambers. Papp, permeability through the cell layer, was calculated using the following formula:
Papp=(C(t)*V)/(C(0)*t*Area), wherein
The value was calculated with the following formula:
efflux=Papp B-A/Papp A-B, wherein • Papp A-B—the volume of permeability in A→B test; • Papp B-A—he volume of permeability in B→A test.
In general terms: Caco-2 cells form a polarised layer with tight junctions and transporters.

Data set [3] has as its system HCC827 (lung adenocarcinoma, SM, exon19delE746-A750). The data set can be described thus: Antiproliferative activity on HCC827 cells (Alamar Blue). Conditions: Homo sapiens, antiproliferative test. The class given is cell-based. The method, boiled down:
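HCC827 cells (EGFR exon19del E746-A750), 10×10^3/well, attached 16–18 h, then exposed to compounds for 72 h at 37 °C in RPMI-1640 with 2% FBS, ≤1% DMSO. Viability by Alamar Blue fluorescence (ex 540/em 590 nm) after 3–5 h; IC50 by four-parameter logistic fit.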

A short description of data set [4]: Chemical stability in human blood plasma. Format: in vitro ADME. The conditions noted are these: pooled human blood plasma; 10 μm; 4 hours at 37° C.; substance amount remaining. The gist of the method:
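Percent of parent remaining was derived by comparing HPLC peak areas at time zero and after 4 h at 37 °C. Test compound was at 10 μM in human plasma pooled from ten donors, and proteins were precipitated with acetonitrile before analysis.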

As a reminder, the IC50 is the concentration that gives 50% inhibition. A low value points to inhibition by little substance. One may read the Papp A→B as how fast a substance crosses the layer from the apical side. A low value points to slow passage. A word on the efflux ratio: it is the permeability from basolateral to apical divided by that in the opposite direction, in the common usage.

As to `C=CC(=O)Nc1cc(Nc2nccc(C(=O)c3ccc(N(CC)CC)cc3)n2)c(OC)cc1N(C)CCN(C)C` [EGFR_3365_72, N-(5-((4-(4-(diethylamino)benzoyl)pyrimidin-2-yl)amino)-2-((2-(dimethylamino)ethyl)(methyl)amino)-4-methoxyphenyl)acrylamide], in data set [1], the IC50 worked out at 3.71 nM and the “SI, IC50(WT)/IC50(DM)” value is 15.09. Further, in data set [2], the apical-to-basolateral permeability (Papp A→B) at 2 h, 10 µM stood at 3.5 ×10⁻⁶ cm/s and the efflux ratio at 2 h, 10 µM was 1.5. In addition, the IC50 in data set [3] worked out at 13.5 nM. Besides, in data set [4], the “Stability in blood plasma, %” value is listed as 94.6%.
Take `C=CC(=O)Nc1cc(Nc2nccc(C(=O)c3ccc(N(C)C)cc3)n2)c(OC)cc1N(C)CCN(C)C` [EGFR_3365_73, N-(5-((4-(4-(dimethylamino)benzoyl)pyrimidin-2-yl)amino)-2-((2-(dimethylamino)ethyl) (methyl)amino)-4-methoxyphenyl)acrylamide]: in data set [1], half-maximal inhibition (IC50) required 2.35 nM and the “SI, IC50(WT)/IC50(DM)” value is on record as 13.89. Also, in data set [2], the Papp A→B at 2 h, 10 µM worked out at 5.1 ×10⁻⁶ cm/s and the efflux ratio at 2 h, 10 µM is 1.6. This compound gave an IC50 in data set [3] of 4.47 nM. Also, the “Stability in blood plasma, %” value in data set [4] is 90.5%.
With `C=CC(=O)Nc1cc(Nc2nccc(C(=O)c3ccc(N4CCCCC4)cc3)n2)c(OC)cc1N(C)CCN(C)C` [EGFR_3365_90, N-(2-((2-(dimethylamino)ethyl)(methyl)amino)-4-methoxy-5-((4-(4-(piperidin-1-yl)benzoyl)pyrimidin-2-yl)amino)phenyl)acrylamide], in data set [1], the IC50 was determined as 0.75 nM and the “SI, IC50(WT)/IC50(DM)” value worked out at 43.40. Also, in data set [2], the Papp A→B at 2 h, 10 µM worked out at 2.2 ×10⁻⁶ cm/s and the efflux ratio at 2 h, 10 µM came to 1.49. The compound further returned an IC50 in data set [3] of 4.39 nM. In addition, the “Stability in blood plasma, %” value in data set [4] was 98.1%.
Take `C=CC(=O)Nc1cc(Nc2nccc(C(=O)c3ccc(N4CCC(N)CC4)cc3)n2)c(OC)cc1N(C)CCN(C)C` [EGFR_3365_121, N-(5-((4-(4-(4-aminopiperidin-1-yl)benzoyl)pyrimidin-2-yl)amino)-2-((2-(dimethylamino)ethyl)(methyl)amino)-4-methoxyphenyl)acrylamide]: in data set [1], the 50% inhibitory concentration (IC50) turned out to be 0.89 nM and the “SI, IC50(WT)/IC50(DM)” value came out at 24.30. Further, in data set [2], the Papp A→B at 2 h, 10 µM came out at 1.87 ×10⁻⁶ cm/s and the efflux ratio at 2 h, 10 µM worked out at 0.87. In data set [3], half-maximal inhibition (IC50) required 15.2 nM. The “Stability in blood plasma, %” value in data set [4] came to 98.3%.
